Measured values: US7763617B2, “Pyrazolopyridine-4-yl pyridazinone derivatives and addition salts thereof, and PDE inhibitors comprising the same derivatives or salts as active ingredient” (Kyorin Pharmaceutical Co., Ltd., priority 2005, dated 2010)

Tests used:
[1] = biological target: T1, PDE3A catalytic domain (PDE3Acat) (Homo sapiens, UniProt Q14432); assay: Inhibition of phosphodiesterase activity, [3H]-cAMP hydrolysis, recombinant PDE3Acat; format: biochemical; conditions: human recombinant PDE3Acat, cAMP 2 μmol/L; read-out: IC50(μmol/L) PDE3
T1 construct: cDNA fragments of PDE3A catalytic domain (indicated as “cat,” hereinafter); made in house; host or cells: Sf9 insect cells (baculovirus, Bac-to-Bac)

[2] = test system: isolated guinea pig tracheal smooth muscles; assay: Relaxant effect on histamine-induced contraction of isolated guinea pig tracheal smooth muscles; conditions: Cavia porcellus; histamine 10^-5 mol/L contraction, relaxation as % of maximum response to papaverine 10^-4 mol/L; read-out: IC50(μmol/L), concentration required to 50% relaxation
Experimental: Guinea pigs were exsanguinated and the trachea was immediately isolated and cut into 2 to 3 cartilage ring segments to prepare tracheal ring preparations. The tracheal rings were suspended in 10 mL of Tyrode's solution bubbled with a gaseous mixture of 95% O2+5% CO2 at 37° C. The composition of the Tyrode's solution (mM) was as follows: NaCl 136.9, KCl 2.7, CaCl2 1.8, MgCl2 1.0, NaH2PO4 0.4, NaHCO3 11.9 and Gucose 5.6. The contractile response was measured by an isometric transducer (UM-203, KISHIMOTO) and recorded on a recorder ([…] SERVOCORDER SR6221). After about 1 hour incubation with 1.5 g of resting tention, histamine (10^−5 mol/L) was added to induce the contractile response. After confirming the response, the preparations were washed with Tyrode's solution (10 mL×3). Then indomethacin (10^−5 mol/L) was applied and the preparations were equilibrated for at least 30 min under 1.5 g tension. Subsequently, histamine (10^−5 mol/L) was applied. After the contraction reached a steady state, each compound was added in a cumulative manner (10^−8 mol/L-3×10^−5 mol/L). Each compound was prepared as a 10^−1 mol/L solution in DMSO, which was diluted with distilled water for use. After addition of test compounds, papaverine (10^−4 mol/L) was added to determine the maximum relaxation of the preparation. Relaxant response of test compounds were expressed as a percentage of the maximum response to papaverine. IC50 was defined as a concentration of the compound required to 50% relaxation. DMSO was used as a control.

PDE5Acat = PDE5Acat (Homo sapiens, UniProt O76074); assay: Inhibition of phosphodiesterase activity, [3H]-cGMP hydrolysis, recombinant PDE5Acat; format: biochemical; conditions: cGMP 2 μmol/L, read-out: IC50(μmol/L) PDE5
Experimental: (§1) RT-PCR was performed to isolate cDNA fragments of PDE3A catalytic domain (indicated as “cat,” hereinafter), PDE4Bcat, PDE5Acat and PDE10A1 from human RNA. Using Gateway system (Invitrogen) and Bac-to-Bac (registered trademark) Baculovirus Expression system (Invitrogen), the isolated cDNA fragments were transfected into Sf9 insect cells for expression of the PDE proteins. The recombinant PDE3Acat, PDE4Bcat, PDE5Acat and PDE10A1 proteins were isolated from culture supernatant or cell extracts of Sf9 cells expressed high levels of these proteins by ion-exchange chromatography and used for the following experiments.
(§2) 4 mmol/L solution of each test compound was serially diluted 4-fold with 15% DMSO solution to prepare the solutions with concentrations of 15 nmol/L to 4 mmol/L (final concentrations=1.5 nmol/L-400 μmol/L). 10 μL of each test compound solution was added to each well of 96 plate with 10 μL of [^3H]-cAMP or [^3H]-cGMP solution, diluted with a buffer (40 mmol/L Tris-HCl (pH 7.4), 10 mmol/L MgCl2) to the concentration shown in Table 20 and 40 μL of each of the human recombinant PDE proteins in units shown in Table 20. The plate was incubated at 30° C. for 20 min, and then at 65° C. for 2 min. Subsequently, 25 μL of 1 mg/mL 5′-nucleotidase (Crotalus atrox venom, Sigma) was added to each well and the plate was incubated at 30° C. for 10 min. 200 μL of Dowex solution (300 mg/mL Dowex 1×8-400 (Sigma Aldrich), 33% ethanol) was then added to each well and the plate was shaken at 4° C. for 20 min. Subsequently, 200 μL of MicroScint 20 (Packard) was added to each well and the radioactivity of each sample was measured by a scintillation counter (Topcount, Packard) IC50 was calculated by GraphPad Prism v3.03 (GraphPad Software).

PDE10A1 = biological target: T2, PDE10A1 (Homo sapiens, UniProt Q9Y233); assay: Inhibition of phosphodiesterase activity, [3H]-cAMP hydrolysis, recombinant PDE10A1; format: biochemical; conditions: human recombinant PDE10A1, cAMP 0.2 μmol/L; read-out: IC50(μmol/L) PDE10
T2 construct: made in house; host or cells: Sf9 insect cells (baculovirus, Bac-to-Bac)
Experimental: as §1, §2

[3] = test system: histamine-induced bronchoconstriction; assay: Histamine-induced bronchoconstriction in guinea pigs; format: in vivo, guinea pig; conditions: Cavia porcellus, iv, 0.5 min, 30 seconds after administration, histamine 12.5 μg/kg i.v.; for inhibition in vivo at 1 mg/kg: test compound 1 mg/kg i.v.
Experimental: Guinea pigs were anesthetized with pentobarbital (30 mg/kg, i.p.). A cannula for IV administeration, a cannula for collecting blood and measurement of blood pressure and a trachea cannula were inserted into the left exterior jugular vein, right interior carotid artery and trachea, respectively. The animals were placed under artificial respiration at 60 times/min and 10 mL/kg/stroke. The airflow through the branch of the tracheal cannula was measured by a bronchospasm transducer (Ugo-Basile) and recorded on a computer via Power Lab (ADInstruments Japan). The animals were immobilized with gallamine (10 mg/kg, i.v.), then administered histamine at 10-minute intervals (12.5 μg/kg, i.v.). […] To examine the inhibitory activity of test compound, the histamine-induced bronchoconstriction was measured after 30 seconds of drug administration. The bronchoconstriction was recorded as the change of the airflow: The results were shown by percentages of the maximum histamine-induced bronchoconstriction. Each test compound was prepared as a 10 mg/mL solution in DMSO. Gallamine was prepared as a 10 mg/mL solution in physiological saline. Histamine was prepared as a 1 mg/mL solution in physiological saline, which was diluted with physiological saline to 62.5 μg/mL for use.

PDE4Bcat = biological target: T3, PDE4Bcat (Homo sapiens, UniProt Q07343); assay: Inhibition of phosphodiesterase activity, [3H]-cAMP hydrolysis, recombinant PDE4Bcat; format: biochemical; conditions: cAMP 2 μmol/L, read-out: IC50(μmol/L) PDE4
T3 construct: catalytic domain (indicated as “cat,” hereinafter), PDE4Bcat; made in house; host or cells: Sf9 insect cells (baculovirus, Bac-to-Bac)
T3 sequence (Q07343 330-659 limits assumed): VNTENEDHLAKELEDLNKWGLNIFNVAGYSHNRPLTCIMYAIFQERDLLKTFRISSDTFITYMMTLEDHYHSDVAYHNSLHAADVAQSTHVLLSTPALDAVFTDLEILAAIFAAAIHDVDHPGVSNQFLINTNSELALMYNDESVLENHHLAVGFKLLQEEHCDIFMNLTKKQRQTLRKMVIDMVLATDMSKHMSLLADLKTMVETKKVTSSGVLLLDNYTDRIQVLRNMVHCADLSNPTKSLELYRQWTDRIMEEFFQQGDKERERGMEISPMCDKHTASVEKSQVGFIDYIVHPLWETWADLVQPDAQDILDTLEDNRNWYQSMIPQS

T2 sequence (Q9Y233 1-779 isoform Q9Y233-1): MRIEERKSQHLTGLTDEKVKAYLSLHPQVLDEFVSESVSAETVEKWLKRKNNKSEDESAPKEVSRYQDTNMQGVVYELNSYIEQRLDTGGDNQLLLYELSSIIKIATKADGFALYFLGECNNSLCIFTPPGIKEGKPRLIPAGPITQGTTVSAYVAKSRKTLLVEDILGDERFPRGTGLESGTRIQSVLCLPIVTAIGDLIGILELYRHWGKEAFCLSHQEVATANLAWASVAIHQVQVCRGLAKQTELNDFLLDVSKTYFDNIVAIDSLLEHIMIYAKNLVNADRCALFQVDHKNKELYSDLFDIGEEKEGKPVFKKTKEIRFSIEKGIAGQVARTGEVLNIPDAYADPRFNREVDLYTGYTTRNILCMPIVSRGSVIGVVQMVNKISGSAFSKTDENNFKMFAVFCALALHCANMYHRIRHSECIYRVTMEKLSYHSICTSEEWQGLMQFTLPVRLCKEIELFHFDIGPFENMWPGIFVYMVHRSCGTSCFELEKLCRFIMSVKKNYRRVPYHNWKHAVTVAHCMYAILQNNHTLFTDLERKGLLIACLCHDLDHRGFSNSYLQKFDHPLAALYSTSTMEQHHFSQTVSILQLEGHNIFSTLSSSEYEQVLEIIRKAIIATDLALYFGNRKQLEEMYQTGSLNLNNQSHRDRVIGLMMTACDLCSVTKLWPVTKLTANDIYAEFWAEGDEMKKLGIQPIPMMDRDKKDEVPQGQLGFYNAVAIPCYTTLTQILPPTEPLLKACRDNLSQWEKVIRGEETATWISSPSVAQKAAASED
T1 sequence (Q14432 674-1093 limits assumed): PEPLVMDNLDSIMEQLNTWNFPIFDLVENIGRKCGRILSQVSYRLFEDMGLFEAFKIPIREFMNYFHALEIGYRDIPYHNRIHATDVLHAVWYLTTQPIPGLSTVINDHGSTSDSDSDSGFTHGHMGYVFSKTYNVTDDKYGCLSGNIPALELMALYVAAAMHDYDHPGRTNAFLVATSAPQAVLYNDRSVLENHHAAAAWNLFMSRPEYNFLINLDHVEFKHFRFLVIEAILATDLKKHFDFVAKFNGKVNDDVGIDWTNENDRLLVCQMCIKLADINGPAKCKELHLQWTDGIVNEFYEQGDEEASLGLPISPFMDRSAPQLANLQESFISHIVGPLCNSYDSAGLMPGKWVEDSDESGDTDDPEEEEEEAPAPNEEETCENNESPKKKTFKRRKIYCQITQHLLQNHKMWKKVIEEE

`COc1ccc(C2=NNC(=O)CC2C)c2cc(C(F)(F)F)nn12` (stereo not shown) [205(211), 6-(7-methoxy-2-trifluoromethyl-pyrazolo[1,5-a]pyridine-4-yl)-4,5-dihydro-5-methyl-3-(2H)-pyridazinone] gave an IC50 [1] of 1 to 10 µmol/L, an IC50 [2] of 0.3 µmol/L and an IC50 (PDE5Acat) greater than 10 µmol/L. For the same molecule, the IC50 (PDE10A1) was 1 to 10 µmol/L, the inhibition in vivo at 0.1 mg/kg ([3]; values in brackets: test compound 0.1 mg/kg, i.v.) was no less than 90% and the IC50 (PDE4Bcat) was less than 1 µmol/L.
Work on `CCc1cc2c(C3=NNC(=O)CC3C)cccn2n1` (stereo not shown) [Example 201] yielded an IC50 [1] of 1 to 10 µmol/L, an IC50 [2] of 0.93 µmol/L and a melting point of 231 to 233 °C. It also gave an IC50 (PDE5Acat) greater than 10 µmol/L, an IC50 (PDE10A1) of 1 to 10 µmol/L and an inhibition in vivo at 1 mg/kg [3] of no less than 90%. For the same molecule, the IC50 (PDE4Bcat) was greater than 10 µmol/L.
In the case of `CCc1cc2c(-c3n[nH]c(=O)cc3C)cccn2n1` [Example 305], the melting point is reported as 229 to 231 °C.
Work on `CCc1cc2c(C3=NNC(=O)CC3C)cc(Cl)cn2n1` (stereo not shown) [Example 311, 6-(6-chloro-2-ethyl-pyrazolo[1,5-a]pyridine-4-yl)-5-methyl-4,5-dihydro-3-(2H)-pyridazinone] yielded an IC50 [2] of 2 µmol/L and a melting point of 172 to 174 °C.
`CCc1cc2c(C3=NNC(=O)CC3C)cc(Cl)cn2n1` (single isomer, unassigned; (+)) [Example 313, (+)-6-(6-chloro-2-ethyl-pyrazolo[1,5-a]pyridine-4-yl)-5-methyl-4,5-dihydro-3-(2H)-pyridazinone] gave an IC50 [1] of 1 to 10 µmol/L, an IC50 [2] of 0.5 µmol/L and an IC50 (PDE5Acat) greater than 10 µmol/L. For the same molecule, the IC50 (PDE10A1) was 0.1 to 1 µmol/L, the inhibition in vivo at 1 mg/kg [3] was no less than 90% and the IC50 (PDE4Bcat) was 1 to 10 µmol/L.
